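Grown in 96-well plates, cells were treated for 48 hours with each compound at five concentrations. Insufficient inhibition: endpoint recorded as highest concentration tested. Abbreviation: GI50, concentration required for 50% inhibition of growth. TGI: concentration producing complete growth inhibition.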

Some test systems named below: DU-145 prostate; M14 melanoma; HCC-2998 colon; NCI-H23 lung; RXF 393 renal; BT-549 breast; NCI/ADR-RES ovarian; OVCAR-8 ovarian; HS 578T breast; NCI-H522 lung.
Assay in all cases: NCI tumour cell line growth inhibition, 48 h

In the case of `O=C(/C(=C\c1c(-c2ccccc2)[nH]c2ccccc12)S(=O)(=O)c1ccccc1)c1ccccc1`, the GI50 was > 100 µM in the experiment on DU-145 prostate; 15.6 µM with M14 melanoma; > 100 µM in the experiment with HCC-2998 colon; 9.57 µM in the experiment with NCI-H23 lung; 97.1 µM in the experiment on RXF 393 renal; > 100 µM with BT-549 breast. The GI50 is > 100 µM in the experiment with NCI/ADR-RES ovarian, > 100 µM in the experiment with OVCAR-8 ovarian, 39.5 µM in the experiment on HS 578T breast and 91.8 µM in the experiment with NCI-H522 lung. Also, the TGI in the experiment on DU-145 prostate, with M14 melanoma, with HCC-2998 colon, with NCI-H23 lung, in the experiment on RXF 393 renal and with BT-549 breast was > 100 µM throughout. Also, the TGI in the experiment on NCI/ADR-RES ovarian, in the experiment with OVCAR-8 ovarian, with HS 578T breast and in the experiment on NCI-H522 lung was > 100 µM throughout.
Turning to `COc1ccc(-c2nn(-c3cccc(Cl)c3)cc2-c2cc(-c3ccccc3)[nH]c(=O)c2C#N)cc1`, the GI50 is 10.3 µM in the experiment with DU-145 prostate; 2.27 µM in the experiment on M14 melanoma; 15.9 µM with HCC-2998 colon; 2.46 µM in the experiment with NCI-H23 lung; 0.897 µM with RXF 393 renal; 1.46 µM in the experiment on BT-549 breast. Besides, the GI50 in the experiment with NCI/ADR-RES ovarian is 2.14 µM; in the experiment with OVCAR-8 ovarian, 1.67 µM; in the experiment on HS 578T breast, 1.41 µM; in the experiment on NCI-H522 lung, 3.59 µM. Moreover, the TGI is > 50 µM with DU-145 prostate; 34.6 µM with M14 melanoma; > 50 µM in the experiment with HCC-2998 colon; 13.6 µM in the experiment with NCI-H23 lung; 2.18 µM in the experiment on RXF 393 renal; 17.8 µM in the experiment with BT-549 breast. The TGI with NCI/ADR-RES ovarian was 36 µM; in the experiment with OVCAR-8 ovarian, > 50 µM; in the experiment on HS 578T breast, > 50 µM; in the experiment on NCI-H522 lung it was 20.8 µM.
For `NCCNCC1CCNCC1`, the TGI with DU-145 prostate, with M14 melanoma, in the experiment with HCC-2998 colon, in the experiment on NCI-H23 lung, in the experiment on RXF 393 renal and with BT-549 breast was > 100 µM each time. Moreover, the TGI in the experiment on NCI/ADR-RES ovarian, in the experiment on OVCAR-8 ovarian, in the experiment with HS 578T breast and with NCI-H522 lung was > 100 µM throughout.
As to `COc1cc2c(Nc3cc(Cl)c(OC)c(Cl)c3)c(C#N)cnc2cc1OCCCN1CCN(C)CC1`, the GI50 in the experiment on DU-145 prostate is 1.28 µM; with M14 melanoma, 1.1 µM; in the experiment with HCC-2998 colon it was 1.56 µM; in the experiment with NCI-H23 lung, 1.54 µM; in the experiment on RXF 393 renal it was 1.01 µM; in the experiment with BT-549 breast, 3.83 µM. For the same molecule, the GI50 was 2.46 µM in the experiment with NCI/ADR-RES ovarian, 1.24 µM in the experiment on OVCAR-8 ovarian, 2.82 µM in the experiment with HS 578T breast and 0.365 µM with NCI-H522 lung. Further, the TGI came to 13 µM in the experiment on DU-145 prostate; 2.57 µM in the experiment with M14 melanoma; 4.1 µM in the experiment with HCC-2998 colon; 4.89 µM in the experiment with NCI-H23 lung; 2.5 µM with RXF 393 renal; 13.8 µM in the experiment with BT-549 breast. Also, the TGI in the experiment on NCI/ADR-RES ovarian turned out to be 9.55 µM; with OVCAR-8 ovarian it was 4.33 µM; in the experiment with HS 578T breast, 11.5 µM; in the experiment with NCI-H522 lung it was 2.17 µM.
Consider `Nc1cc(Br)c(-c2nnc(CCC(=O)c3nc4ccccc4[nH]3)o2)c(Br)c1`, for which the GI50 is 5.4 µM in the experiment on DU-145 prostate; 17.5 µM in the experiment on M14 melanoma; 11 µM in the experiment with HCC-2998 colon; 3.26 µM with NCI-H23 lung; 13 µM with RXF 393 renal; 6.82 µM in the experiment with BT-549 breast. The GI50 is 22.6 µM in the experiment with NCI/ADR-RES ovarian, 21.6 µM in the experiment on OVCAR-8 ovarian, 3.75 µM with HS 578T breast and 2.9 µM in the experiment on NCI-H522 lung. Moreover, the TGI in the experiment with DU-145 prostate is 53.5 µM; in the experiment with M14 melanoma, 55.5 µM; in the experiment with HCC-2998 colon, 42.5 µM; with NCI-H23 lung it was 36.4 µM; with RXF 393 renal, 58.7 µM; in the experiment with BT-549 breast, > 100 µM. For the same molecule, the TGI in the experiment on NCI/ADR-RES ovarian was > 100 µM; in the experiment with OVCAR-8 ovarian it was > 100 µM; in the experiment with HS 578T breast, 31.7 µM; in the experiment with NCI-H522 lung it was 16.9 µM.
`CC1(C)CN=C(NN=C(/C=C/c2ccc(C(F)(F)F)cc2)/C=C/c2ccc(C(F)(F)F)cc2)NC1`: the GI50 in the experiment on DU-145 prostate was 1.04 µM; in the experiment with M14 melanoma it was 1.78 µM; in the experiment on HCC-2998 colon, 1.41 µM; with NCI-H23 lung it was 1.56 µM; in the experiment with RXF 393 renal, 1.33 µM; in the experiment with BT-549 breast, 1.74 µM. Also, the GI50 with NCI/ADR-RES ovarian is 1.4 µM; in the experiment on OVCAR-8 ovarian, 1.67 µM; in the experiment on HS 578T breast, 1.56 µM; with NCI-H522 lung, 1.25 µM. For the same molecule, the TGI in the experiment on DU-145 prostate is 2.22 µM; in the experiment with M14 melanoma, 3.5 µM; in the experiment on HCC-2998 colon, 2.92 µM; in the experiment with NCI-H23 lung, 3.23 µM; in the experiment on RXF 393 renal it was 2.73 µM; with BT-549 breast, 3.46 µM. Further, the TGI in the experiment with NCI/ADR-RES ovarian turned out to be 3.03 µM; in the experiment on OVCAR-8 ovarian, 3.2 µM; with HS 578T breast, 3.64 µM; with NCI-H522 lung, 2.57 µM.
For `COc1cc(/C=C\c2cc(OC)c(OC)c(OC)c2)cc(N/C=C\C(=O)c2c[nH]c3ccccc23)c1OC`, the GI50 in the experiment on DU-145 prostate is 2.06 µM; with M14 melanoma, 2.87 µM; in the experiment with HCC-2998 colon it was 3.34 µM; in the experiment on NCI-H23 lung, 3.75 µM; in the experiment on RXF 393 renal it was 1.69 µM; in the experiment on BT-549 breast it was 1.64 µM. For the same molecule, the GI50 in the experiment with NCI/ADR-RES ovarian was 3.48 µM; in the experiment on OVCAR-8 ovarian, 3.33 µM; in the experiment on HS 578T breast, 2.21 µM; in the experiment with NCI-H522 lung, 1.76 µM. Moreover, the TGI with DU-145 prostate stood at 4.08 µM; in the experiment on M14 melanoma, 12.6 µM; with HCC-2998 colon, 10.5 µM; in the experiment with NCI-H23 lung, 16.2 µM; with RXF 393 renal, 3.38 µM; in the experiment on BT-549 breast, 3.38 µM. Further, the TGI came out at 19.3 µM with NCI/ADR-RES ovarian, 13.3 µM in the experiment on OVCAR-8 ovarian, 12.9 µM in the experiment on HS 578T breast and 3.7 µM in the experiment on NCI-H522 lung.
Turning to `CCC/C=C/C=C/C1CC(O)C(O)C(=O)C1CO` (stereo not given), the TGI in the experiment with DU-145 prostate, with M14 melanoma, with HCC-2998 colon, in the experiment on NCI-H23 lung, in the experiment on RXF 393 renal and with BT-549 breast was > 100 µM in each case. In addition, the TGI in the experiment on NCI/ADR-RES ovarian, in the experiment on OVCAR-8 ovarian, with HS 578T breast and in the experiment with NCI-H522 lung was > 100 µM in each case.
With `Nc1ccccc1O.O.O=C(O)C1[O][Sb][O]C1C(=O)O` (stereo not given), the GI50 with DU-145 prostate is 14.6 µM; in the experiment on M14 melanoma, 11.5 µM; in the experiment with HCC-2998 colon it was 17.9 µM; in the experiment on NCI-H23 lung, 17.6 µM; in the experiment on RXF 393 renal, 6.35 µM; in the experiment on BT-549 breast, 14.9 µM. Also, the GI50 in the experiment with NCI/ADR-RES ovarian was 28.6 µM; with OVCAR-8 ovarian it was 14.9 µM; in the experiment on HS 578T breast it was 9.07 µM; in the experiment with NCI-H522 lung, 2.17 µM. Also, the TGI in the experiment with DU-145 prostate turned out to be 27.8 µM; with M14 melanoma, 25.9 µM; with HCC-2998 colon it was 47.7 µM; with NCI-H23 lung, 44.2 µM; in the experiment on RXF 393 renal it was 16.7 µM; in the experiment with BT-549 breast, 30.6 µM. In addition, the TGI is > 87.2 µM in the experiment with NCI/ADR-RES ovarian, 32.9 µM with OVCAR-8 ovarian, 46.2 µM with HS 578T breast and 6.24 µM with NCI-H522 lung.
As for `CC(C)[C@H](O)C(=O)N[C@@H](C)C(=O)N[C@@H]1C(=O)N(C)CCc2ccccc21`, the GI50 with DU-145 prostate, in the experiment on M14 melanoma, with HCC-2998 colon, with NCI-H23 lung, in the experiment on RXF 393 renal and in the experiment with BT-549 breast was > 100 µM each time. Further, the GI50 in the experiment on NCI/ADR-RES ovarian, in the experiment on OVCAR-8 ovarian, with HS 578T breast and with NCI-H522 lung was > 100 µM throughout. Besides, the TGI with DU-145 prostate, in the experiment on M14 melanoma, in the experiment with HCC-2998 colon, with NCI-H23 lung, in the experiment with RXF 393 renal and in the experiment with BT-549 breast was > 100 µM throughout. Moreover, the TGI in the experiment with NCI/ADR-RES ovarian, in the experiment with OVCAR-8 ovarian, with HS 578T breast and with NCI-H522 lung was > 100 µM throughout.
Consider `CC1CC(O)C(=O)C(O[C@@H]2C[C@@H]3CC[C@@H]4[C@H](CC[C@]5(C)C(C6=CC(=O)OC6)CC[C@]45O)[C@@]3(C=O)C[C@H]2O)O1` (stereo not given in full), for which the TGI turned out to be 0.0237 µM with DU-145 prostate; 0.178 µM in the experiment with M14 melanoma; 0.243 µM in the experiment with HCC-2998 colon; 0.0565 µM in the experiment on NCI-H23 lung; 0.0506 µM with RXF 393 renal; 0.126 µM in the experiment with BT-549 breast. The TGI with NCI/ADR-RES ovarian was 0.0678 µM; in the experiment on OVCAR-8 ovarian, 0.163 µM; with HS 578T breast it was 0.214 µM; in the experiment on NCI-H522 lung, < 0.0274 µM.
With `COc1ccc(-c2nc(-c3cc(OC)cc(OC)c3)[nH]c2-c2ccc(OC)cc2)cc1`, the GI50 in the experiment on DU-145 prostate is 65.5 µM; with M14 melanoma, 8.37 µM; in the experiment with HCC-2998 colon it was 5.96 µM; with NCI-H23 lung it was 4.72 µM; in the experiment on RXF 393 renal, > 100 µM; in the experiment on BT-549 breast, 8.56 µM. Besides, the GI50 with NCI/ADR-RES ovarian is 9.76 µM; in the experiment on OVCAR-8 ovarian, 9.77 µM; with HS 578T breast it was 8.33 µM; in the experiment on NCI-H522 lung, 3.42 µM. The TGI in the experiment with DU-145 prostate, in the experiment with M14 melanoma, in the experiment on HCC-2998 colon, with NCI-H23 lung, with RXF 393 renal and in the experiment with BT-549 breast was > 100 µM in each case. Further, the TGI with NCI/ADR-RES ovarian was > 100 µM; in the experiment on OVCAR-8 ovarian it was > 100 µM; in the experiment on HS 578T breast, > 100 µM; in the experiment with NCI-H522 lung, 59.3 µM.
For the molecule `COc1ccc(C(=O)c2cc(OC)c(OC)c(OC)c2)cc1OC`, the TGI is > 100 µM in the experiment with DU-145 prostate; > 100 µM with M14 melanoma; 5.79 µM in the experiment with HCC-2998 colon; > 100 µM with NCI-H23 lung; 6.3 µM in the experiment on RXF 393 renal; > 100 µM with BT-549 breast. Moreover, the TGI is > 100 µM with NCI/ADR-RES ovarian, > 100 µM in the experiment with OVCAR-8 ovarian, 8.83 µM in the experiment on HS 578T breast and 12.3 µM with NCI-H522 lung.

The record behind these values is PubChem BioAssay (NCI).
